#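 48-hour exposure; five concentrations; linearly interpolated endpoints. The concentration for 50% growth inhibition is given as GI50.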 Active and inactive are the calls of the source. Cut-off read from the data, not from the text of the source: active = GI50 up to about 1.1 µM and inactive = higher.
# What was measured:
# Test in all cases: NCI-60 cell line screen, 48 h
# 786-0 = system: 786-0
# CAKI-1 = system: CAKI-1
# HCC 2998 = system: HCC 2998
# HCT-116 = system: HCT-116
# HL-60 = system: HL-60
# HOP-92 = system: HOP-92
# KM12 = system: KM12
# LOX IMVI = system: LOX IMVI
# M14 = system: M14
# NCI-H226 = system: NCI-H226
# NCI-H460 = system: NCI-H460
# NCI-H522 = system: NCI-H522
# RXF 393 = system: RXF 393
# SF-295 = system: SF-295
# SR = system: SR
# A498 = system: A498
# SNB-75 = system: SNB-75
Structure (SMILES),GI50 (786-0),GI50 (CAKI-1),GI50 (HCC 2998),GI50 (HCT-116),GI50 (HL-60),GI50 (HOP-92),GI50 (KM12),GI50 (LOX IMVI),GI50 (M14),GI50 (NCI-H226),GI50 (NCI-H460),GI50 (NCI-H522),GI50 (RXF 393),GI50 (SF-295),GI50 (SR),GI50 (A498),GI50 (SNB-75)
COC(=O)C(CC=O)C(=O)C(=O)Nc1cccc(C(F)(F)F)c1 (stereo unspecified),> 100 µM (inactive),> 100 µM (inactive),> 100 µM (inactive),> 100 µM (inactive),> 100 µM (inactive),> 100 µM (inactive),> 100 µM (inactive),> 100 µM (inactive),> 100 µM (inactive),> 100 µM (inactive),> 100 µM (inactive),> 100 µM (inactive),> 100 µM (inactive),> 100 µM (inactive),> 100 µM (inactive),,
Cn1c(CCC#N)nc2ccc(Br)cc2c1=O,> 100 µM (inactive),> 100 µM (inactive),> 100 µM (inactive),,> 100 µM (inactive),> 100 µM (inactive),> 100 µM (inactive),> 100 µM (inactive),> 100 µM (inactive),> 100 µM (inactive),> 100 µM (inactive),> 100 µM (inactive),> 100 µM (inactive),> 100 µM (inactive),,> 100 µM (inactive),> 100 µM (inactive)
C[n+]1c2ccccc2c(CNc2ccc(S(=O)(=O)N=C(N)N)cc2)c2ccccc21,6.84 µM (inactive),1.72 µM (inactive),15.1 µM (inactive),5.78 µM (inactive),1.46 µM (inactive),5.24 µM (inactive),13.2 µM (inactive),3.29 µM (inactive),6.05 µM (inactive),1.6 µM (inactive),0.61 µM (active),9.77 µM (inactive),15.1 µM (inactive),3.6 µM (inactive),,17.4 µM (inactive),4.13 µM (inactive)
Cc1cc2c(=O)cc(-c3ccc(C(=O)O)cc3)oc2c(C(N)=O)c1C,> 100 µM (inactive),,> 100 µM (inactive),> 100 µM (inactive),,> 100 µM (inactive),> 100 µM (inactive),> 100 µM (inactive),> 100 µM (inactive),,> 100 µM (inactive),> 100 µM (inactive),,> 100 µM (inactive),,> 100 µM (inactive),28.9 µM (inactive)
CC1CN1c1c(C(=O)/C=C/c2ccccc2)c(-c2ccccc2)nn(C)c1=O (stereo unspecified),15.9 µM (inactive),37.4 µM (inactive),16.4 µM (inactive),17.5 µM (inactive),17.2 µM (inactive),13.1 µM (inactive),20.8 µM (inactive),15.6 µM (inactive),17.1 µM (inactive),20.8 µM (inactive),19.1 µM (inactive),13.4 µM (inactive),24.7 µM (inactive),22.6 µM (inactive),,17.7 µM (inactive),18.8 µM (inactive)
COC(=O)c1c(OC)cccc1C(=O)O,> 100 µM (inactive),> 100 µM (inactive),> 100 µM (inactive),> 100 µM (inactive),> 100 µM (inactive),,> 100 µM (inactive),,> 100 µM (inactive),> 100 µM (inactive),> 100 µM (inactive),> 100 µM (inactive),> 100 µM (inactive),> 100 µM (inactive),,> 100 µM (inactive),> 100 µM (inactive)
C[C@]12CC[C@H](O)CC1=CC[C@@H]1C2CC[C@]2(C)NC(=O)C(C#N)CC12 (stereo partly specified),> 100 µM (inactive),> 100 µM (inactive),> 100 µM (inactive),> 100 µM (inactive),> 100 µM (inactive),,> 100 µM (inactive),,> 100 µM (inactive),> 100 µM (inactive),> 100 µM (inactive),,55.1 µM (inactive),12.8 µM (inactive),,> 100 µM (inactive),51.4 µM (inactive)
OCC(O)C(O)C(O)c1nn(-c2ccc(Cl)cc2)c2nc3cc(Cl)c(Cl)cc3nc12 (stereo unspecified),65.6 µM (inactive),> 100 µM (inactive),60.1 µM (inactive),> 100 µM (inactive),> 100 µM (inactive),,> 10 µM (inactive),39.3 µM (inactive),22.7 µM (inactive),21.1 µM (inactive),68.7 µM (inactive),27.1 µM (inactive),21.8 µM (inactive),67.6 µM (inactive),> 100 µM (inactive),,3.66 µM (inactive)
CN(C)c1ccc(/C=C/C(=O)c2ccccc2)cc1Br,17.2 µM (inactive),16.3 µM (inactive),19.2 µM (inactive),,,,15.8 µM (inactive),,13.2 µM (inactive),,35.7 µM (inactive),15 µM (inactive),,20 µM (inactive),,> 100 µM (inactive),16.6 µM (inactive)
CCCNCc1nc2ccc(Br)cc2c(=O)n1CCC,15.8 µM (inactive),,,9.98 µM (inactive),6.53 µM (inactive),,15.1 µM (inactive),4.93 µM (inactive),14.1 µM (inactive),12.5 µM (inactive),,13.4 µM (inactive),15.4 µM (inactive),16.9 µM (inactive),11.7 µM (inactive),18.1 µM (inactive),17.1 µM (inactive)
COc1cc(/C=C(\C#N)C(=O)c2ccccc2)cc(OC)c1OC,> 100 µM (inactive),> 100 µM (inactive),> 100 µM (inactive),> 100 µM (inactive),> 100 µM (inactive),83.4 µM (inactive),> 100 µM (inactive),> 100 µM (inactive),> 100 µM (inactive),> 100 µM (inactive),> 100 µM (inactive),> 100 µM (inactive),29.6 µM (inactive),> 100 µM (inactive),> 100 µM (inactive),,38.1 µM (inactive)
CCC(=O)N1C(=O)OCC1C(C)C (stereo unspecified),> 100 µM (inactive),> 100 µM (inactive),> 100 µM (inactive),> 100 µM (inactive),> 100 µM (inactive),> 100 µM (inactive),> 100 µM (inactive),> 100 µM (inactive),> 100 µM (inactive),,> 100 µM (inactive),,> 100 µM (inactive),> 100 µM (inactive),,> 100 µM (inactive),> 100 µM (inactive)
Clc1ccc(/C=C/c2csnn2)cc1,> 100 µM (inactive),> 100 µM (inactive),> 100 µM (inactive),> 100 µM (inactive),> 100 µM (inactive),27.1 µM (inactive),> 100 µM (inactive),> 100 µM (inactive),> 100 µM (inactive),> 100 µM (inactive),> 100 µM (inactive),> 100 µM (inactive),> 100 µM (inactive),> 100 µM (inactive),,> 100 µM (inactive),> 100 µM (inactive)
C[C@H]1NC(=O)C2CCCCN2C(=O)CN(C)C(=O)CNC(=O)C2CCCCN2C(=O)[C@@H](NC(=O)c2nc3ccccc3cc2O)[C@@H](C)NC(=O)C2CCCCN2C(=O)CN(C)C(=O)CNC(=O)[C@@H]2CCCCN2C(=O)C1NC(=O)c1nc2ccccc2cc1O (stereo partly specified),0.203 µM (active),0.136 µM (active),0.204 µM (active),,2.03 µM (inactive),,0.27 µM (active),0.169 µM (active),0.241 µM (active),0.0664 µM (active),0.188 µM (active),0.106 µM (active),0.0463 µM (active),0.0258 µM (active),,0.166 µM (active),0.0598 µM (active)
CCCCCCCCCCCCCC(=O)CSCCNC(=O)CCNC(=O)[C@@H](O)C(C)(C)COP(=O)(O)OP(=O)(O)OCC1OC(n2cnc3c(N)ncnc32)C(O)C1OP(=O)(O)O (stereo partly specified),15.5 µM (inactive),,16.5 µM (inactive),15.8 µM (inactive),20.5 µM (inactive),11.5 µM (inactive),14.6 µM (inactive),18.4 µM (inactive),18.1 µM (inactive),18.2 µM (inactive),25.6 µM (inactive),10.6 µM (inactive),25 µM (inactive),13.4 µM (inactive),,18.4 µM (inactive),5.7 µM (inactive)
CN1OC2OC(=O)OC2[C@H]1[C@H]1O[C@H](c2ccccc2)OC1(C)c1cc(OC(=O)c2ccccc2)ccc1OC(=O)c1ccccc1 (stereo partly specified),> 50 µM (inactive),> 50 µM (inactive),,> 50 µM (inactive),> 50 µM (inactive),> 50 µM (inactive),> 50 µM (inactive),> 50 µM (inactive),> 50 µM (inactive),> 50 µM (inactive),> 50 µM (inactive),> 50 µM (inactive),> 50 µM (inactive),,> 50 µM (inactive),,> 50 µM (inactive)
COC1=CC(C)C2C[C@H]3O[C@H](O)C[C@H]4C(C)C(=O)C(O)C([C@@]2(C)C1=O)[C@@]34C (stereo partly specified),> 100 µM (inactive),> 100 µM (inactive),> 100 µM (inactive),> 100 µM (inactive),,> 100 µM (inactive),> 100 µM (inactive),> 100 µM (inactive),> 100 µM (inactive),> 100 µM (inactive),> 100 µM (inactive),> 100 µM (inactive),> 100 µM (inactive),> 100 µM (inactive),,> 100 µM (inactive),> 100 µM (inactive)
CC(C)c1ccc(C(c2ccc(OCC(=O)O)cc2)c2ccc(C(C)C)cc(=O)c2O)c(O)c(=O)c1,6.47 µM (inactive),3.82 µM (inactive),4.94 µM (inactive),3.76 µM (inactive),3.27 µM (inactive),0.0478 µM (active),,3.71 µM (inactive),3.18 µM (inactive),,2.83 µM (inactive),,10.2 µM (inactive),4.4 µM (inactive),,23.9 µM (inactive),3.29 µM (inactive)
